The values below come from patent EP1101492A1, “NOVEL REMEDIES FOR ALLERGIC DISEASES” (FUJI YAKUHIN KOGYO KABUSHIKI KAISHA, priority 1998, dated 2000).

One test has as its system allergic peritonitis. The test is described as follows: Allergic peritonitis induced with ovalbumin (peritoneal exudate cells). The class given is in vivo, Balb/c mice. The note with it: ovalbumin. The procedure:
Twenty four hours after induction, mice were sacrificed under ether […] and each penitoneal cavity was lavaged twice or thrice with a washout medium (total volume: 5 mL, physiological saline containing 10 units/mL of heparin). Peritoneal exudate cells (PEC) were harvested in a siliconized glass tube. The retrieved washout medium was measured for its yield (mL) and the number of exudate cells therein by using Turk solution and counting on a haemocytometer and a total number of PEC was calculated. An aliquot thereof (an extent of approximately 20,000 cells of PEC) was taken. Specimens for staining were prepared using Cytospin 3 (CHANDON), and PEC was stained with Dif-Quick solution (International Reagents Corporation). After staining, PEC was subjected to fractional counts under a microscope with classification into eosinophils, neutrophils, lymphocytes/macrophages and basophils based on their form and stain nature (more than 500 PEC per specimen were randomly counted). […] After counting, intraperitoneal exudation inhibition rates were calculated by the following formula and expressed as the therapeutic efficacies: Inhibition Rate (%) =[1 -((PEC in Sensitized/Drug-Treated Mouse) - (PEC in Unsensitized/Saline-Treated Mouse))/((PEC in Sensitized/Saline-Treated Mouse) - (PEC in Unsensitized/Saline-Treated Mouse))]× 100 [formula]
A physiological saline solution containing ovalbumin (0.25 mg/mL) and an aluminum hydroxide gel (4 mg/mL) was administered subcutaneously to male Balb/c mice (7 weeks old, 20 to 23 g, purchased from JAPAN SLC, Inc.) twice at one week interval at a single dose of 0.4 mL for sensitization. On Day 14 after the initial sensitization, an antigen solution for induction (2.5 µg/mL) was administered intraperitoneally to each animal at a dose of 0.4 mL to raise allergic peritonitis. Compound No. 130 (30 mg/kg) or a negative control solvent, physiological saline (10 mL/kg), was administered intraperitoneally to each animal 5 minutes prior to induction, 3 and 6 hours post-induction.
Similarly to Example 24, the peritoneal cavities were lavaged to retrieve PEC. The drained liquids were measured for their yield and total PEC number therein. In the same manner as in Example 24, PEC was stained and subjected to fractional counting under a microscope based on their form. […] Similarly to Example 24, basophils and neutrophils were excluded from subjects to be examined. In the same manner as in Example 24, intraperitoneal exudation inhibition rates were calculated and expressed as the therapeutic efficacies.
In the same manner as in Example 25, male Balb/c mice were sensitized with ovalbumin and an aluminum hydroxide gel, and, on Day 14 after the initial sensitization, treated with an antigen solution to raise allergic peritonitis. Compound No. […]
Similarly to Example 24, the peritoneal cavities were lavaged to retrieve PEC 24 hours after induction. The drained liquids were measured for their yield and total PEC number therein.

Test [1] deals with mouse experimental atopic dermatitis models. The test is described as follows: Auricle edema in experimental atopic dermatitis model (anti-DNP IgE sensitization, DNFB elicitation). It is filed as in vivo, Balb/c mice. The note with it: 60 µg/ear/dose in ethanol painted on auricles twice a day, 1 hour pre-elicitation, 6 hours, 1 to 6 days post-elicitation; for % Inhibition vLPR: 7 or 8 days post-elicitation; for % Inhibition IPR: 1 hour post-elicitation; for % Inhibition LPR: 1 day post-elicitation. The protocol: Intravenous injection of an anti-2,4-dinitrophenol (DNP) antibody (anti-DNP Ab, monoclonal IgE Ab; its antibody titer was 1 : 512 to 1 : 1024 by a rat heterologous passive cutaneous anaphylaxis reaction using a Wister rat) into a tail vein of female Balb/c mice (7-week old, body weight: 17 to 20 g, purchased from JAPAN SLC, Inc.) at a dose of […] per animal raised passive sensitization. Twenty four hours post-sensitization, 0.1% 2,4-dinitrofluorobenzene (DNFB; Nacalai Tesque, Inc.) in ethanol was painted onto both sides of a pair of mouse auricles at a dose of 10µL per each side for elicitation.
Fresh unsensitized mice were painted with 0.1% DNFB in ethanol onto their ear in the same manner as aforementioned and served as a control group. Not only immediately prior to elicitation but also 1 hour, 5 hours, daily between Days 1 and 14, and on Day 16 post-elicitation, ear thickness was measured using a dial thickness gauge (Peacock Co.). Each degree of auricle edemas was calculated: Auricular Edema (µm)=(Ear Thickness Post-Elicitation, µm) - (Ear Thickness immediately prior to Elicitation, µm) [formula]
Balb/c mice were passively sensitized with anti-DNP IgE Ab in the same manner as in Example 1. Twenty four hours later, 0.1% DNFB in ethanol was painted onto both sides of a pair of mouse auricles at a dose of 10 µL per each side for elicitation.
Immediately prior to elicitation, 1 hour and on Day 1 post-elicitation, auricle thickness was measured in the same manner as in Example 1. Each therapeutic efficacy is recorded as a percent inhibition wherein the "auricle edema (untreated group)" is used as a control. Auricle Edema Inhibition (%) = [ 1 -(Auricle Edema (Treated Group))/(Auricle Edema (Untreated Group))] × 100 (%) [formula]
Immediately prior to elicitation, and on Day 7 post-elicitation, auricle thickness was similarly measured. Each therapeutic efficacy is recorded as a percent inhibition wherein the auricle edema in the untreated group is used as a control.
Immediately prior to elicitation, and on Day 7 post-elicitation, auricle thickness was similarly measured. Each therapeutic efficacy is recorded as a percent inhibition wherein the auricle edema (untreated group) is used as a control.
Immediately prior to elicitation, at 1 and 4 hours and on Days 1, 3 and 7 post-elicitation, auricle thickness was similarly measured. From each auricle edema (µm) based on the auricle thickness immediately prior to elicitation, especially a prophylactically therapeutic efficacy of the test compound was evaluated.
Immediately prior to elicitation, at 0.5, 1 and 4 hours and on Days 1, 3 and 7 post-elicitation, auricle thickness was similarly measured. Each amount of auricle edemas was calculated (average± standard deviation).

Test [2] shares this test system. The test is described as follows: Scratching behavior in experimental atopic dermatitis model. The class given is in vivo, mice. The conditions noted are these: for % Inhibition (scratching behavior) / Scratching Behavior (Times) (Average± Deviation): 0.1% solution in ethanol, 10 µL per side painted 1 hour pre-elicitation; for % Inhibition (scratching behavior): counts for 15 to 30 and 30 to 45 min post-elicitation, vs solvent control; for Scratching Behavior (Times) (Average± Deviation): counts for the 15 to 30 min and 30 to 45 min post-elicitation durations, 3 animals per group, solvent control 209.0 ± 70.4.

Test [3] deals with guinea pig experimental bronchial asthma models. The test is described as follows: Experimental bronchial asthma model (ovalbumin inhalation): airway resistance and asthmatic death.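 Further: female Std:Hartley guinea pigs sensitized by inhaling nebulized ovalbumin once daily for 8 consecutive days, 8 to 11 animals per group.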 The note with it: test compounds 15 mg/kg s.c. (Compound No. 114: 30 mg/kg), prednisolone 10 mg/kg orally.
Experimental: Guinea pigs (female, Std:Hartley, 3 weeks old, 200 to 250 g) were individually housed in a plastic chamber (width, 200 mm; depth, 300 mm; height, 167 mm). Aqueous ovalbumin (10 mg/mL) was administered to the guinea pigs once a day for sensitization by 10 min. inhalation with a nebulizer (5B, Nippon Shoji K.K.: flow rate, 6 L/min.) at a dose of 10 mg/mL during 8 cosecutive days. On Day 7 after the final sensitization, the guinea pigs were housed in a plastic chamber and inhaled using a nebulizer with a solution of ovalbumin (10 mg/mL) in physiological saline for 1 min. for elicitation (Matsumoto, T., et al., The Journal of Pharmacology and Experimental Therapeutics, 269: 1236-1244, 1994). The number of animals employed in the experiment was set to the extent there are at least 6 as individuals escaping asthmatic death. A solution of a test compound (Compound No. 130, 15 mg/kg) in water for injection was administered subcutaneously twice, i.e., 24 hours and 2 hours prior to elicitation. Similarly, the solvent alone was also administered to a negative control group. A suspension of prednisolone (10 mg/kg) in 0.5% aqueous methyl cellulose was administered orally twice, i.e., 24 hours and 2 hours prior to elicitation. Similarly, the solvent alone was also administered to another control group.
The evaluation for efficacies was conducted in terms of airway resistance. For this purpose, an apparatus dedicated to the measurement of airway resistance (K.K. Medical Agent) was employed. Measurement includes setting a guinea pig in a test chamber under a not-anesthetized condition, applying sinusoidal pressure waves of 30 Hz components to a part below the neck of the animal from the back side of the chamber, measuring respiratory waves of 30 Hz components leaking through the mouth (volume of 30 Hz air flow passing through the respiratory tract) in front of the neck, and calculating airway resistance mechanically. Measurement was carried out immediately prior to the first drug treatment (24 hours before elicitation), just prior to elicitation, 10 minutes, 1, 2, 4, 6, and 8 hours post-elicitation.
It was visually observed by a person carrying out said test in terms, of the appearance of cyanosis or suffocative death (asthmatic death) due to respiratory obstruction.
Guinea pigs were sensitized with ovalbumin and asthma was induced on Day 7 after final sensitization in the same manner as in Example 20. The number of animals employed in the experiment was set to the extent there are at least 6 as individuals escaping asthmatic death (8 to 11 animals/group). In the same manner as in Example 20, the animals were measured for airway resistance mechanically and each percent change (%) in airway resistance was calculated (each value just prior to elicitation was set as 100%). Each percent amelioration in airway resistance was calculated from the percent changes in airway resistance according to the following formula: Amelioration in Airway Resistance (%) = 1 -[((Percent Change in Airway Resistance after Drug-Administration) - (Value just prior to Challenge (100)))/((Percent Change in Airway Resistance after Solvent-Administration) - (Value just prior to Challenge (100)))]× 100 [formula]
The mark [4] stands for this setting: 30 mg/kg s.c. 1 hour prior to induction and 3 hours post-induction, lavage 6 hours post-induction.
[5] abbreviates: 30 mg/kg s.c., lavage 24 hours post-induction.
The mark [6] stands for this setting: 24 and 2 hours prior to elicitation, vs solvent control.

On to `CNC(=O)[C@H](CCCCN)NC(=O)[C@H](CC(C)C)C(CCCc1ccc(C(=O)OC)cc1)C(=O)NO.Cl` (single isomer, unassigned) [Compound No. 129, N-[4-(N-Hydroxyamino)-2(R)-isobutyl-3(R or S)-[3-(p-methoxycarbonylphenyl)propyl)succinyl]-L-lysine N-methylamide 1 hydrochloride], for which, in the test with allergic peritonitis (setting [4]), the “Leukocyte exudate inhibition rate (%) Eosinophils” value amounted to 39.9%, the “Leukocyte exudate inhibition rate (%) Neutrophils” value is listed as 125.7% and the “Leukocyte exudate inhibition rate (%) Total PEC Number” value turned out to be 109.1%. In the test with allergic peritonitis (setting [5]), the “Leukocyte exudate inhibition rate (%) (Macrophages)/(Lymphocytes)” value was 37.7%, the “Leukocyte exudate inhibition rate (%) Eosinophils” value turned out to be 30.2% and the “Leukocyte exudate inhibition rate (%) Total PEC Number” value turned out to be 35.1%. In addition, in test [1], the “% Inhibition vLPR” value was determined as 35%, the “% Inhibition IPR” value is listed as 28% and the “% Inhibition LPR” value turned out to be 53%. In test [2], the “% Inhibition (scratching behavior)” value amounted to 31.1% and the “Scratching Behavior (Times) (Average± Deviation)” value was found to be 144.0 ± 48.8 Times.

Turning to `CNC(=O)[C@H](Cc1ccc(N=C(N)N)cc1)NC(=O)[C@@H](CC(=O)NO)CC(C)C.O=S(=O)(O)O` [Compound No. 122, N-[4-(N-Hydroxyamino)-2(R)-isobutylsuccinyl]-L-4'-guanidophenylalanine-N-methylamide 1 sulfate], in the test with allergic peritonitis (setting [4]), the “Leukocyte exudate inhibition rate (%) Neutrophils” value is recorded as 27.1% and the “Leukocyte exudate inhibition rate (%) Total PEC Number” value is 38.6%. In addition, in test [1], the “% Inhibition vLPR” value is given as 35%, the “% Inhibition IPR” value was 31% and the “% Inhibition LPR” value turned out to be 22%. For the same molecule, in test [2], the “% Inhibition (scratching behavior)” value turned out to be 54.1% and the “Scratching Behavior (Times) (Average± Deviation)” value came out at 96.0 ± 32.6 Times.

For the molecule `COC(=O)[C@H](Cc1ccc(CN)cc1)NC(=O)[C@H](CC(C)C)[C@H](CCCc1ccccc1)C(=O)NO.Cl` [Compound No. 132, N-[4-(N-Hydroxyamino)-2(R)-isobutyl-3(S)-(3-phenylpropyl)succinyl]-L-4'-aminomethylphenylalanine methyl ester 1 hydrochloride], in the test on allergic peritonitis (setting [5]), the “Leukocyte exudate inhibition rate (%) (Macrophages)/(Lymphocytes)” value came out at 34.0%, the “Leukocyte exudate inhibition rate (%) Eosinophils” value is 24.3% and the “Leukocyte exudate inhibition rate (%) Total PEC Number” value was determined as 31.6%. Further, in test [1], the “% Inhibition vLPR” value is 46%, the “% Inhibition IPR” value amounted to 20% and the “% Inhibition LPR” value came to 39%. In test [2], the “% Inhibition (scratching behavior)” value was determined as 49.9% and the “Scratching Behavior (Times) (Average± Deviation)” value stood at 104.7 ± 30.6 Times.

On to `CC(C)C[C@@H](C(=O)N[C@@H](Cc1ccc(CN)cc1)C(=O)O)C(CCCc1ccccc1)C(=O)NO.Cl` (mixture of isomers) [Compound No. 114, N^a-[4-(N-Hydroxyamino)-2(R)-isobutyl-3(RS)-(3-phenylpropyl)succinyl]-L-4'-aminomethylphenylalanine · 1 hydrochloride], for which, in the test with allergic peritonitis (setting [5]), the “Leukocyte exudate inhibition rate (%) (Macrophages)/(Lymphocytes)” value turned out to be 29.0%, the “Leukocyte exudate inhibition rate (%) Eosinophils” value was determined as 37.5% and the “Leukocyte exudate inhibition rate (%) Total PEC Number” value worked out at 33.4%. In addition, in test [1], the “% Inhibition vLPR” value is given as 52%, the “% Inhibition IPR” value is 71% and the “% Inhibition LPR” value was 62%. Moreover, in test [2], the “% Inhibition (scratching behavior)” value was determined as 30.3% and the “Scratching Behavior (Times) (Average± Deviation)” value was 345.7 ± 47.1 Times. The “% Survival” value in test [3] (asthmatic death within several minutes after elicitation, water for injection 54.5, 0.5% methyl cellulose 66.7) is 70.0%. Further, in test [3] (setting [6]), the “% Amelioration in Airway Resistance, 1 Hour after Elicitation” value is listed as 39.4%; the “% Amelioration in Airway Resistance, 6 Hours after Elicitation” value came out at 69.4%; the “% Amelioration in Airway Resistance, Immediately after Elicitation” value stood at 54.0%.

As for `CNC(=O)[C@H](Cc1ccc(N=C(N)N)cc1)NC(=O)C(CC(C)C)[C@H](CCCc1ccccc1)C(=O)NO.Cl` (single isomer, unassigned) [Compound No. 125, N -[4-(N-Hydroxyamino)-2(R or S)-isobutyl-3(S)-(3-phenyltrimethylene)succinyl]-L-4'-guanidophenylalanine-N-methylamide 1 hydrochloride], in the test on allergic peritonitis (setting [4]), the “Leukocyte exudate inhibition rate (%) Eosinophils” value is 38.4%, the “Leukocyte exudate inhibition rate (%) Neutrophils” value is recorded as 41.4% and the “Leukocyte exudate inhibition rate (%) Total PEC Number” value is on record as 40.9%. Also, in the test on allergic peritonitis (setting [5]), the “Leukocyte exudate inhibition rate (%) (Macrophages)/(Lymphocytes)” value was 55.1%, the “Leukocyte exudate inhibition rate (%) Eosinophils” value came out at 38.9% and the “Leukocyte exudate inhibition rate (%) Total PEC Number” value is listed as 49.6%. Besides, in test [1], the “% Inhibition vLPR” value came out at 31%, the “% Inhibition IPR” value was 56% and the “% Inhibition LPR” value came to 58%. In test [2], the “% Inhibition (scratching behavior)” value was 40.7% and the “Scratching Behavior (Times) (Average± Deviation)” value was determined as 124.0 ± 43.6 Times. Moreover, in test [2] (0.3% Compound No. 125 vs 0.1% tacrolimus painted on auricles), the “inhibitory efficacy on scratching in the 20 to 40 min post-elicitation duration” value is recorded as “higher than that of tacrolimus”. Also, the “efficacy on mouse scratching behavior (FIG. 9)” value in test [2] (0.3% ethanolic solution, 10 µL per side painted on auricles 5 minutes pre-elicitation, observed 2 hours) is listed as “apparently inhibits mouse scratching behavior”.
